This note sets out measurements from PMC6427912 (Journal of medicinal chemistry, 2019).

Data set [1] addresses EcOPPS (E. coli octaprenyl diphosphate synthase) (Escherichia coli, UniProt P0AD57). In words: OPPS enzyme inhibition assay. The format is biochemical. Particulars: IC50 against EcOPPS.
Data set [2] deals with B. subtilis. In words: B. subtilis serum binding assay. Format: cell-based, Bacillus subtilis. Particulars: 4% or 10% fetal bovine serum.
A further data set has as its system B. anthracis Sterne. Format: cell-based, Bacillus anthracis. The following applies: B. anthracis Sterne growth inhibition.
For another data set, the system named is Mycobacterium smegmatis. In words: M. smegmatis growth inhibition assay. Format: cell-based.
The subject of another data set is HEK293 cells. In words: HEK293 cell growth inhibition assay. The format is cell-based, human. Particulars: for HEK293 toxicity (ED50): 96 hours incubation; for HEK 293: HEK293 cell growth inhibition ED50, 24 hr incubation.
Data set [3] relates to B. subtilis. In words: B. subtilis growth inhibition assay. Format: cell-based, Bacillus subtilis.
For the next data set, the system named is S. aureus. In words: S. aureus growth inhibition assay. The format is cell-based, Staphylococcus aureus. Particulars: S. aureus growth inhibition.

Like-named read-outs stand apart in the source and are kept apart here.

EcOPPS (E. coli octaprenyl diphosphate synthase), sequence (P0AD57 whole entry): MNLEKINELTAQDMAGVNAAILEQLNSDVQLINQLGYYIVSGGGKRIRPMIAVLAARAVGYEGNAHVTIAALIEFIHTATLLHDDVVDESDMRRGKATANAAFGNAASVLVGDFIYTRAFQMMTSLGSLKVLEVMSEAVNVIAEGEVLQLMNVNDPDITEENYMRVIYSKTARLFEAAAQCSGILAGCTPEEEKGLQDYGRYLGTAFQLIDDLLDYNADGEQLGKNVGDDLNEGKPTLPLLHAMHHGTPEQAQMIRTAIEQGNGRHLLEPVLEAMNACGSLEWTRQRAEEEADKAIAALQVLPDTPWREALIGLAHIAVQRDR

Turning to `O=P(O)(O)C(O)(Cn1ccnc1)P(=O)(O)O` [Compound 24, zoledronate], the half-inhibitory concentration (IC50) – broadly, the midpoint of a concentration-inhibition curve – in data set [1] is below 1000 nM.
Turning to `CCCCCCCCCCCc1ccc[n+](CC(P(=O)([O-])O)P(=O)(O)O)c1` (stereo not drawn) [Compound 76, Hydrogen (1-phosphono-2-(3-undecylpyridin-1-ium-1-yl)ethyl)phosphonate], the “effect of serum on B. subtilis growth inhibition” value with B. subtilis [2] is on record as “no effect”. Moreover, the “Ba ED50” value in the data set with B. anthracis Sterne was 0.6 µg/mL; in the data set on B. anthracis Sterne (value in parentheses), 1.4 µM. Besides, the results for the “Ms ED50” value in the data set with Mycobacterium smegmatis (48 hours) and in the data set with Mycobacterium smegmatis (value in parentheses) were 6.1 µg/mL and 14 µM, respectively. In the data set with HEK293 cells, the “HEK293 toxicity (ED50)” value is reported as 7.3 µM. For the same molecule, the “HEK 293” value in the data set with HEK293 cells is 96 µg/mL. Also, the “Bs ED50” value in the data set on B. subtilis [3] (12 hours) turned out to be 2.1 µg/mL; with B. subtilis [3] (value in parentheses) it was 4.8 µM. Further, the “Sa ED50” value is 13 µg/mL with S. aureus and 30 µM with S. aureus (value in parentheses).
Consider `CCCCCCCCCCOc1ccc[n+](CC(P(=O)([O-])O)P(=O)(O)O)c1` (stereo not drawn) [Compound 6], for which the IC50 in data set [1] is around 6 nM.
On to `CC(C)CCCC(C)CCCc1ccc[n+](CC(P(=O)([O-])O)P(=O)(O)O)c1` (stereo not drawn) [Compound 77, Hydrogen(2-(3-(4,8-dimethylnonyl)pyridin-1-ium-1-yl)-1-phosphonoethyl) phosphonate], for which the “effect of serum on B. subtilis growth inhibition” value with B. subtilis [2] was “no effect”. Besides, the “Ba ED50” value in the data set with B. anthracis Sterne was 2.1 µg/mL; in the data set with B. anthracis Sterne (value in parentheses), 5.0 µM. In addition, the “Ms ED50” value in the data set on Mycobacterium smegmatis (48 hours) amounted to 5.9 µg/mL; with Mycobacterium smegmatis (value in parentheses), 14 µM. The “HEK293 toxicity (ED50)” value with HEK293 cells is recorded as 140 µM. The “HEK 293” value in the data set with HEK293 cells came to 194 µg/mL. The “Bs ED50” value was 2.2 µg/mL in the data set with B. subtilis [3] (12 hours) and 5.2 µM in the data set on B. subtilis [3] (value in parentheses). The figures for the “Sa ED50” value in the data set on S. aureus and in the data set on S. aureus (value in parentheses) were 13 µg/mL and 31 µM, respectively.
Regarding `CC(C)CCCC(C)CCSc1cc[n+](CC(P(=O)([O-])O)P(=O)(O)O)cc1` (stereo not drawn) [Compound 85, Hydrogen(2-(4-((3,7-dimethyloctyl)thio)pyridin-1-ium-1-yl)-1-phosphonoethyl) phosphonate], the “Ba ED50” value turned out to be 1.1 µg/mL with B. anthracis Sterne and 2.5 µM with B. anthracis Sterne (value in parentheses). Besides, the “Ms ED50” value in the data set on Mycobacterium smegmatis (48 hours) came to 70 µg/mL; in the data set with Mycobacterium smegmatis (value in parentheses), 160 µM. Also, the “HEK 293” value was 440 µg/mL in the data set with HEK293 cells and 1000 µM in the data set on HEK293 cells (value in parentheses). The figures for the “Bs ED50” value with B. subtilis [3] (12 hours) and in the data set on B. subtilis [3] (value in parentheses) were 7.0 µg/mL and 16 µM, respectively. The “Sa ED50” value stood at 31 µg/mL in the data set on S. aureus and 71 µM in the data set with S. aureus (value in parentheses).
Regarding `CC(C)CCCC(C)CCOc1cc(NCC(P(=O)(O)O)P(=O)(O)O)ccn1` (stereo not drawn) [Compound 87, (2-((2-((3,7-Dimethyloctyl)oxy)pyridin-4-yl)amino)ethane-1,1-diyl)bis(phosphonic acid)], the “Ba ED50” value in the data set on B. anthracis Sterne is 3.2 µg/mL; in the data set with B. anthracis Sterne (value in parentheses), 7.3 µM. In addition, the “Ms ED50” value with Mycobacterium smegmatis (48 hours) was determined as 75 µg/mL; in the data set on Mycobacterium smegmatis (value in parentheses) it was 170 µM. Besides, the “HEK 293” value worked out at 530 µg/mL in the data set on HEK293 cells and 1200 µM in the data set on HEK293 cells (value in parentheses). The “Bs ED50” value came to 21 µg/mL in the data set on B. subtilis [3] (12 hours) and 48 µM with B. subtilis [3] (value in parentheses). Besides, the figures for the “Sa ED50” value in the data set with S. aureus and in the data set with S. aureus (value in parentheses) were 35 µg/mL and 80 µM, respectively.
For the molecule `CC(C)CCCC(C)CCNc1ccc[n+](CC(P(=O)([O-])O)P(=O)(O)O)c1` (stereo not drawn) [Compound 78, Hydrogen(2-(3-((3,7-dimethyloctyl)amino)pyridin-1-ium-1-yl)-1-phosphonoethyl) phosphonate], the “Ba ED50” value with B. anthracis Sterne came to 0.8 µg/mL; in the data set on B. anthracis Sterne (value in parentheses), 1.9 µM. Further, the “Ms ED50” value in the data set with Mycobacterium smegmatis (48 hours) is 5.5 µg/mL; with Mycobacterium smegmatis (value in parentheses) it was 13 µM. In addition, the “HEK 293” value was determined as 186 µg/mL in the data set with HEK293 cells and 440 µM with HEK293 cells (value in parentheses). Besides, the “Bs ED50” value is 2.4 µg/mL in the data set on B. subtilis [3] (12 hours) and 5.7 µM with B. subtilis [3] (value in parentheses). Moreover, the “Sa ED50” value came to 13 µg/mL in the data set on S. aureus and 31 µM in the data set on S. aureus (value in parentheses).
